Results taken from patent publication US5587463A, “Texaphyrin macrocycles and metal complexes thereof” (Board of Regents, The University of Texas System, priority 1994, dated 1996).
“Also recorded” adds a separate entry of the source. Read-outs that look alike come from different tables or passages of the source.

Assays:
[1] = Imine hydrolysis half-life by pH
HSV-1 = experiment: Preliminary in vitro photo-killing of HSV-1 infectivity; type: cell-based
Text: (§1) Several preliminary in vitro biological studies have been carried out with the cadmium(II) complexes of the 18 and 22 π-electron texaphyrins 14D and 5D. […] This latter result, in particular, augurs well for the eventual use of these materials in prophylactic photodynamic anti-AIDS blood-treatment programs. The 2 log decrease in HSV-1 activity achieved with the texaphyrin systems studied to date is not yet sufficient to completely design a viable protocol: Both HPD and PII, as well as sapphyrin (6D) , reprepared by literature methods^70 provide about a 5 log decrease in viral activity under similar light fluence when irradiated at the appropriate lowest energy transition (630 and 690 nm, respectively). Although a mechanistic comparison with the incompletely characterized hematoporphyrin-derived systems is difficult, a direct structural correspondence exists between the tripyrroledimethine-derived cadmium(II) texaphyrin and free-base sapphyrin systems: The main difference is in overall charge on the photosensitizer. It may thus be that these two macrocycle types are bound to the virus envelope in a different manner; perhaps the sapphyrin "intercalates" into the lipid layer and the charged metallotexaphyrin sits on the surface of the membrane and as such could suffer from deleterious aggregations (which would lower singlet oxygen production).

[2] = Cytotoxicity in the absence of light; type: cell-based; details: preliminary
Text: In addition, some preliminary toxicity and stability information will begin to emerge from these in vitro experiments.

lymphocytes = experiment: Localization on lymphocytes by absorption and emission measurements; type: cell-based
Text: as §1

[3] = Stability in methanol/water or water (decomplexation, decomposition)
[4] = Stability to demetallation (sulfide, thiosulfate); type: physicochemical; details: aqueous Na2 S / excess sulfide anion
Text: The above K1 and K2 (or K1 K2) values are predicated on the assumption that the cadmium complexes under discussion are stable with regards to demetallation and that the equilibria of equations 1 and 2 (or 3) pertain under the conditions of base binding. The first of these concerns is readily apparent: If demetallation occurs, then obviously one is not studying base binding! […] The second concern is particularly important within the context of quantitative work: If, for instance, the starting complex 3.cndot.NO3 is not rigorously five coordinate, then K1 (and perhaps K2 as well) would represent an axial ligand displacement reaction rather than a pure addition process as implied above. Control experiments indicate that the assumption of initial five coordination is reasonable: Independent titrations of 3A .cndot.NO3 with NH4 NO3 and H2 O indicate that only modest and monotonic changes in the chemical shift of the "meso" signals take place over the course of adding ≥50 equivalents of these potentially adventitious ligands.^40 This means that either "complete" binding occurs at 1:1 stoichiometry (essentially ruled out in the case of H2 O on the basis of analytical data), or that these species are poorly coordinating in CHCl3 so that five coordination pertains about cadmium; the latter interpretation appearing more likely.
Attempts to demetallate complex 3A .cndot.NO3 were made. In an effort to obtain the free sp^2 bridged ligand 2A, the above complex in chloroform was stirred for several hours in the presence of sodium sulfide and independently with sodium thiosulfate. […] In the case of sodium sulfide, this critical conclusion was further supported by FAB MS: Other than the starting cationic complex 3A, no evidence was obtained for any moderate to high molecular weight volatile products in the mass spectrum. […] The rate of this process, however, is strongly pH dependent, the half-life being, for instance, on the order of several hours in the presence of ca. 0.1N HCl.

[5] = benzene, cited from earlier work
[6] = test system: rapidly growing tissues including sarcomas and carcinomas; details: in vivo; cited from earlier work
[7] = test system: enveloped viruses (HSV-1, cytomegalovirus, measles virus, HIV-1); details: previous studies; cited from earlier work
[8] = Stability of free-base macrocycle; type: physicochemical
[9] = 1:1 methanol/water
[10] = Optical and photophysical properties of metallotexaphyrins (laser flash photolysis, fluorescence, singlet oxygen luminescence); type: physicochemical; set-up: tt (triplet lifetime): unit not given here; details: CH3 OH
Text: Finally, several complexes containing paramagnetic metal ions (e.g. Mn^II, Sm^III, and Eu^III, structures 5c -7c) were investigated.
Comparison of the initial intensity with that obtained using tetrakis (4-hydroxyphenyl)porphyrin (THPP) as photosensitizer^3b under identical conditions allowed calculation of the quantum yields for production of singlet oxygen (^.phi. 1.cndot.2).

herpes simplex (HSV-1) = experiment: Preliminary in vitro HSV-1 infectivity study in 10% human serum; type: cell-based; details: irradiation at 767 nm
Text: (§2) In summary, the new metallotexaphrin complexes discussed here show three important optical properties which make them unique among existing porphyrin-like macrocycles. They absorb strongly in a physiologically important region (i.e. 730-770 nm), form long-lived triplet states in high yield, and act as efficient photosensitizers for the formation of singlet oxygen (see, e.g. FIG. 21).

lymphocyte = experiment: Preliminary in vitro lymphocyte mitogenic activity study in 10% human serum; type: cell-based; details: irradiation at 767 nm
Text: as §2

CCC1=C(C)c2cnc3ccccc3ncc3nc(cc4[n-]c(cc1n2)c(CC)c4CC)C(CC)=C3C.[Cd+2] [complex 2B]
half-life for imine hydrolysis ([1]; pH 2): several hours | half-life for imine hydrolysis ([1]; pH 7): > 30 days

CCC1=C(C)c2cnc3ccccc3ncc3nc(cc4[nH]c(cc1n2)c(CC)c4CC)C(CC)=C3C [5D]
photo-killing of HSV-1 infectivity (HSV-1; 20 J/cm^2 at lowest energy absorption (690 nm for 14D, 767 nm for 5D)): ca. 2 log | dark antiviral activity (HSV-1; dark): neither 5D nor 14D show any appreciable dark antiviral activity | general cytotoxicity [2]: nor, fortunately, do they show much evidence of general cytotoxicity in the absence of light | localization on lymphocytes (lymphocytes): localize selectively on lymphocytes

CCC1=C(C)c2cnc3ccccc3ncc3nc(cc4[n-]c(cc1n2)c(CC)c4CC)C(CC)=C3C.[In+3] [In^3+ complex of texaphyrin]
hydrolytic stability (in words) [3]: kinetically and hydrolytically stable | half-lives for decomplexation and/or ligand decomposition ([3]; 1:1 methanol-water): exceed 3 weeks

CCC1=C(C)c2cnc3ccccc3ncc3nc(cc4[n-]c(cc1n2)c(CC)c4CC)C(CC)=C3C.[Cd+2] [cadmium(II) complex of 5D]
general cytotoxicity [2]: not appreciable cytotoxic

cadmium tetraphenyl porphyrin [CdTPP, reference compound]
demetallation by sulfide [4]: serves to demetallate CdTPP; also recorded: leads to cation loss and precipitation of CdS | Kd ([5]; 29.9°, read-out: K1 (single pyridine axial ligand) (converted)): ~370 µM | formation of bisligated species ([5]; pyridine-containing): no evidence for the formation of a bisligated CdTPP-(pyr)2

CC1=C(CCC(=O)O)c2cc3[nH]c(cc4nc(cc5[nH]c(cc1n2)c(C)c5C(C)O)C(C)=C4C(C)O)c(C)c3CCC(=O)O (stereo not shown) [hematoporphyrin]
localization in rapidly growing tissues [6]: localize selectively in rapidly growing tissues including sarcomas and carcinomas

dihematoporphyrin ether [DHE]
inactivation of viruses [7]: only those viruses studied which are enveloped or possess a membraneous coat are inactivated

CCC1=C(C)c2cnc3ccccc3ncc3nc(cc4[nH]c(cc1n2)c(CC)c4CC)C(CC)=C3C [compound 2, 4,5,9,24-tetraethyl-10,23-dimethyl-13,20,25,26,27-pentaazapentacyclo [20.2.1.1^3,6.1^8,11.0^14,19] heptacosa-1,3,5,7,9,11(27), 12,14,16,18,20,22 (25),23-tridecaene]
stability of free-base relative to compound 1 [8]: undergoes decomposition far more slowly than compound 1

CCC1=C(C)C2=[N+]3C1=Cc1c(CC)c(CC)c4[n]1[Gd-2]315[N+](=C2)c2cc(C)c(C)cc2[N+]1=CC1=[N+]5C(=C4)C(CC)=C1C.[OH-].[OH-] [complex 7B]
half-life [9]: over 5 weeks | half-life for decomplexation and/or decomposition [9]: ≥ 100 days | bleaching of the Soret and Q-type bands ([9]; 336 h, 35 µM): less than 10% | half-life for imine hydrolysis (pH 2): several hours | half-life for imine hydrolysis (pH 7): > 30 days

CCc1c(CC)c2cc3nc(cc4[nH]c(c(C)c4CC)c4[nH]c(cc5nc(cc1[nH]2)C(CCC(=O)N(CCO)CCO)=C5C)c(CC)c4C)C(C)=C3CCC(=O)N(CCO)CCO [6D, reference compound]
decrease in viral activity (HSV-1; similar light fluence, at lowest energy transition (630 and 690 nm, respectively)): ~5 log

CCC1=C(C)c2cnc3ccccc3ncc3nc(cc4[n-]c(cc1n2)c(CC)c4CC)C(CC)=C3C.O=[N+]([O-])[O-].[Cd+2] [3C NO3]
Emission gmax [10]: 780 nm | S (= phi 1O2 / phi t) [10]: 0.78 | tt (triplet lifetime) ([10]; deoxygenated): 55 | Absorption gmax (Soret-type band) ([10]; first value (Soret)): 417 nm | Absorption gmax (Q-type band) ([10]; second value (Q-type)): 759 nm | Dt (triplet quantum yield) ([10]; ±5%): 0.88 | D^1 O2 (singlet oxygen quantum yield) ([10]; ±10%): 0.69 | Df (fluorescence quantum yield) ([10]; ±10%): 0.011 | HSV-1 infectivity (herpes simplex (HSV-1)): significant decrease | lymphocyte mitogenic activity (lymphocyte): significant decrease
